Values joined by “and” are separate entries in the source; they are usually repeats but may differ in a detail not shown here. Equal values may be shown once. “Also recorded” adds a separate entry of the source.
Columns and labels:
[1] = Monkey bleeding liability study: forearm template bleeding time; type: in vivo, cynomolgus monkeys; settings: for Template bleeding time: anesthetized monkeys, single oral dose (SCH 530348 1 mg/kg, ASA 10 mg/kg, clopidogrel 2 mg/kg), mean ± SEM
Experimental: (§1) Any novel antiplatelet agent should optimally avoid incremental bleeding risk relative to the current standard of care. The bleeding risk of SCH 530348 was evaluated in anesthetized cynomoigus monkeys in which SCH 530348 was administered alone and along with aspirin and clopidogrel. Bleeding assessment was conducted following administration of single doses of SCH 530348 (1 mg/kg) and/or aspirin (10 mg/kg, ASA) and clopidogrel (2 mg/kg). Four groups of monkeys were dosed orally with either vehicle (the medium used to dissolve the drug, 0.4% methylcellulose) or drug (n=5-6/group): Group I: vehicle, Group II: SCH 530348 (1 mg/kg), Group III ASA (10 mg/kg) plus clopidogrel (2 mg/kg) and Group IV: combination of SCH 530348, ASA plus clopidogrel. Doses of various drugs used inhibited their respective platelet pathways by >90% as assessed by ex-vivo platelet aggregation in whole blood. Two hours after dosing, animals were anesthetized and bleeding risk was assessed by forearm template bleeding time and surgical blood loss from a femoral incision site.
Template bleeding time was assessed as follows. The forearm of the monkey was shaved of hair and a precision cut (5 mm long and 1 mm deep) was made on the skin with a Simplate® bleeding device (Organon Tehnika), The duration of bleeding by blotting blood onto a filter paper at the incision site was determined. When blood was no longer absorbed onto the filter paper, bleeding was considered “stopped.” The time from initiation of the cut to when bleeding stopped is defined as the template bleeding time. In these studies bleeding time was assessed on two occasions at approximately 3.5 and 4 hrs after oral dosing with the drug.

[2] = Monkey bleeding liability study: surgical blood loss from femoral incision site; type: in vivo, cynomolgus monkeys; settings: anesthetized monkeys, single oral dose (SCH 530348 1 mg/kg, ASA 10 mg/kg, clopidogrel 2 mg/kg), mean ± SEM
Experimental: as §1
Surgical blood loss was assessed as follows. The femoral artery and femoral vein on the hind leg of the anesthetized monkey were surgically isolated by cutting with a scalpel blade. […] A small sample was read in a spectrophotometer (at […]) and the volume of blood loss was derived from a standard curve. […]

[3] = Phase 2 study (P03573): bleeding in primary (PCI) cohort; type: in vivo, humans; settings: for non-TIMI bleeding: Arterial Access, patients (%) / non-TIMI bleeding: Contusion/Bruise, patients (%) / non-TIMI bleeding: Expistaxis, patients (%) / non-TIMI bleeding: GI, patients (%) / non-TIMI bleeding: Genitourinary, patients (%) / non-TIMI bleeding: Gingival, patients (%) / non-TIMI bleeding: Incidental Cuts, patients (%) / non-TIMI bleeding: Vascular Puncture, patients (%): primary PCI cohort; for Any bleed, patients (%) / TIMI Major bleeding, patients (%) / TIMI Major/Minor bleeding, patients (%) / non-TIMI bleeding (overall), patients (%) / TIMI Minor bleeding, patients (%): primary cohort (PCI), 60 days
Excerpt: The behavior of SCH 530348 in humans was further studied in a Phase 2 clinical development program. A key safety issue for SCH 530348 is the potential for incremental bleeding when added to standard of care with other oral antiplatelet therapies as well as parenteral antithrombotics. Therefore, a single Phase 2 study (P03573) was completed to evaluate the safety of SCH 530348 in patients at high risk of bleeding events, i.e., those patients undergoing non-emergent PCI (percutaneous coronary intervention). The goals of this Phase 2 study were to: • Evaluate the safety of SCH 530348 in addition to standard of care with respect to TIMI major and minor bleeding; and, • Observe the effects of SCH 530348 on major adverse cardiac events (“MACE”) in patients successfully completing an interventional procedure.
The primary endpoint (directed to evaluating safety) was the combined […] (“TIMI”) major and TIMI minor bleeding over sixty days in the primary evaluable cohort. Though the study was not powered to evaluate efficacy, a secondary endpoint (directed to evaluating efficacy) was the incidence of the composite of death and major adverse cardiac events (“MACE”) in the primary cohort. MACE includes myocardial infarction, urgent revascularization, and ischemia requiring hospitalization. Pharmacokinetics and pharmacodynamics were assessed at selected sites across the treatment groups. Other secondary endpoints included the incidence of TIMI major and minor bleeding in the secondary evaluable cohort i.e., those individuals who received the loading dose only.

[4] = Coagulation parameters; parameters: species or system humans; settings: in vivo
Excerpt: Similarly, there is no effect on arachidonic acid (“AA”) -induced platelet aggregation (see FIGS. 16 and 17) or collagen-induced platelet aggregation (see FIGS. 18-21).

[5] = in vivo

In the case of CCOC(=O)N[C@@H]1CC[C@@H]2[C@@H](C1)C[C@H]1C(=O)O[C@H](C)[C@H]1[C@H]2/C=C/c1ccc(-c2cccc(F)c2)cn1.O=S(=O)(O)O [SCH 530348, ethyl [(1R,3aR,4aR,6R,8aR,9S,9aS)-9-[(E)-2-[5-(3-fluorophenyl)-2-pyridinyl]ethenyl]-dodecahydro-1-methyl-3-oxonaphtho[2,3-c]furan-6-yl] carbamate bisulfate], the “Bleeding risk / prolongation of bleeding” value ([1]; SCH 530348 1 mg/kg alone or with aspirin and clopidogrel, 1 mg/kg) is reported as “no bleeding risk; also recorded: no prolongation of bleeding”, the Template bleeding time [1] is reported as 4.9 min and the Template bleeding time ([1]; listed as Group II) is reported as 4.9 ± 0.99 min. The Surgical blood loss [2] was 0.18 mL/h, the Surgical blood loss ([2]; listed as Group II) was 0.18 ± 0.03 mL/h and the “non-TIMI bleeding: Arterial Access, patients (%)” value ([3]; 10 mg loading dose) was 11%. The “non-TIMI bleeding: Contusion/Bruise, patients (%)” value ([3]; 10 mg loading dose) was 10%, the “non-TIMI bleeding: Expistaxis, patients (%)” value ([3]; 10 mg loading dose) was 6% and the “non-TIMI bleeding: GI, patients (%)” value ([3]; 10 mg loading dose) was 2 (2%). For the same compound, the “non-TIMI bleeding: Genitourinary, patients (%)” value ([3]; 10 mg loading dose) was 3%, the “non-TIMI bleeding: Gingival, patients (%)” value ([3]; 10 mg loading dose) was 2 (2%) and the “non-TIMI bleeding: Incidental Cuts, patients (%)” value ([3]; 10 mg loading dose) was 4%. The “non-TIMI bleeding: Vascular Puncture, patients (%)” value ([3]; 10 mg loading dose) was 12%, the “non-TIMI bleeding: Arterial Access, patients (%)” value ([3]; 20 mg loading dose) was 17% and the “non-TIMI bleeding: Contusion/Bruise, patients (%)” value ([3]; 20 mg loading dose) was 17%. For the same compound, the “non-TIMI bleeding: Expistaxis, patients (%)” value ([3]; 20 mg loading dose) was 5%, the “non-TIMI bleeding: GI, patients (%)” value ([3]; 20 mg loading dose) was 1 (1%) and the “non-TIMI bleeding: Genitourinary, patients (%)” value ([3]; 20 mg loading dose) was 5%. The “non-TIMI bleeding: Gingival, patients (%)” value ([3]; 20 mg loading dose) was 1 (1%), the “non-TIMI bleeding: Incidental Cuts, patients (%)” value ([3]; 20 mg loading dose) was 13% and the “non-TIMI bleeding: Vascular Puncture, patients (%)” value ([3]; 20 mg loading dose) was 18%. For the same compound, the “non-TIMI bleeding: Arterial Access, patients (%)” value ([3]; 40 mg loading dose) was 14%, the “non-TIMI bleeding: Contusion/Bruise, patients (%)” value ([3]; 40 mg loading dose) was 18% and the “non-TIMI bleeding: Expistaxis, patients (%)” value ([3]; 40 mg loading dose) was 5%. The “non-TIMI bleeding: GI, patients (%)” value ([3]; 40 mg loading dose) was 3%, the “non-TIMI bleeding: Genitourinary, patients (%)” value ([3]; 40 mg loading dose) was 2% and the “non-TIMI bleeding: Gingival, patients (%)” value ([3]; 40 mg loading dose) was 1%. The “non-TIMI bleeding: Incidental Cuts, patients (%)” value ([3]; 40 mg loading dose) was 10%, the “non-TIMI bleeding: Vascular Puncture, patients (%)” value ([3]; 40 mg loading dose) was 15% and the “non-TIMI bleeding: Arterial Access, patients (%)” value ([3]; All SCH 530348) was 14%. For the same compound, the “non-TIMI bleeding: Contusion/Bruise, patients (%)” value ([3]; All SCH 530348) was 15%, the “non-TIMI bleeding: Expistaxis, patients (%)” value ([3]; All SCH 530348) was 5% and the “non-TIMI bleeding: GI, patients (%)” value ([3]; All SCH 530348) was 2%. The “non-TIMI bleeding: Genitourinary, patients (%)” value ([3]; All SCH 530348) was 3%, the “non-TIMI bleeding: Gingival, patients (%)” value ([3]; All SCH 530348) was 1% and the “non-TIMI bleeding: Incidental Cuts, patients (%)” value ([3]; All SCH 530348) was 9%. For the same compound, the “non-TIMI bleeding: Vascular Puncture, patients (%)” value ([3]; All SCH 530348) was 15%, the “Any bleed, patients (%)” value ([3]; 10 mg loading dose) was 37% and the “TIMI Major bleeding, patients (%)” value ([3]; 10 mg loading dose) was 1.6%. The “TIMI Major/Minor bleeding, patients (%)” value ([3]; 10 mg loading dose) was 1.6%, the “non-TIMI bleeding (overall), patients (%)” value ([3]; 10 mg loading dose) was 36% and the “Any bleed, patients (%)” value ([3]; 20 mg loading dose) was 43%. For the same compound, the “TIMI Major/Minor bleeding, patients (%)” value ([3]; 20 mg loading dose) was 2.5%, the “TIMI Minor bleeding, patients (%)” value ([3]; 20 mg loading dose) was 2.5% and the “non-TIMI bleeding (overall), patients (%)” value ([3]; 20 mg loading dose) was 43%. The “Any bleed, patients (%)” value ([3]; 40 mg loading dose) was 45%, the “TIMI Major bleeding, patients (%)” value ([3]; 40 mg loading dose) was 0.6% and the “TIMI Major/Minor bleeding, patients (%)” value ([3]; 40 mg loading dose) was 4.0%. For the same compound, the “TIMI Minor bleeding, patients (%)” value ([3]; 40 mg loading dose) was 3.4%, the “non-TIMI bleeding (overall), patients (%)” value ([3]; 40 mg loading dose) was 42% and 43% and the “Any bleed, patients (%)” value ([3]; All SCH 530348) was 42%. For the same compound, the “TIMI Major bleeding, patients (%)” value ([3]; All SCH 530348) was 0.7%, the “TIMI Minor bleeding, patients (%)” value ([3]; All SCH 530348) was 2.1% and the “non-TIMI bleeding (overall), patients (%)” value ([3]; All SCH 530348) was 41% and 40%. The “TIMI Major/Minor bleeding, patients (%)” value ([3]; All SCH 530348, primary safety endpoint) was 2.8%, the Affecting coagulation parameters [4] was “without” and the “Discontinuation of study drug for any adverse event, patients (%)” value [5] was 6%. The “Patients completing the sixty day treatment period (%)” value [5] was 84%.
